According to article PMC6134108, “Nystatin-like Pseudonocardia polyene B1, a novel disaccharide-containing antifungal heptaene antibiotic” (Scientific Reports, 2018):
Where two headings read alike, the source gives them in different places.

What was measured:
[1] = tested on: cholesterol-containing membranes; assay: Preliminary SPR experiments; format: binding; settings: unpublished data
ICR mice = assay: Single intravenous dose acute toxicity; format: in vivo
Description: (§1) All in vivo mouse toxicity studies were conducted according to Testing Guidelines for Safety Evaluation of Drugs[32] and the Organisation for Economic Co-operation and Development (OECD) Guideline[33]. Male and female ICR mice were used 7 weeks old for the toxicity test. […] The single doses were 1, 2.5, and 5 mg per kg body weight.

[2] = Single intravenous dose acute toxicity; format: in vivo, mice; settings: ICR, mouse, in vivo, single intravenous administration
Description: as §1

Question: For `C[C@@H]1[C@H](O)[C@@H](C)/C=C/C=C/C=C/C=C/C=C/C=C/C=C/[C@H](O[C@@H]2O[C@H](C)[C@@H](O)[C@H](N)[C@@H]2O)C[C@@H]2O[C@](O)(C[C@@H](O)C[C@@H](O)[C@H](O)CC[C@@H](O)C[C@@H](O)CC(=O)O[C@H]1C)C[C@H](O)[C@H]2C(=O)O` [Amphotericin B, amphotericin B], which “affinity compared with NPP B1” value [1] is on record?
Answer: higher affinity

Question: And the “Deaths on day after start of treatment” value (ICR mice; female, single iv 1mg/kg, day 0)?
Answer: 0

Question: And the “Deaths on day after start of treatment” value (ICR mice; female, single iv 1mg/kg, day 1)?
Answer: 0

Question: What about the “Deaths on day after start of treatment” value (ICR mice; female, single iv 1mg/kg, day 2) of the same compound?
Answer: 1

Question: And the “Deaths on day after start of treatment” value (ICR mice; female, single iv 1mg/kg, day 3)?
Answer: 0

Question: What about the “Deaths on day after start of treatment” value (ICR mice; female, single iv 1mg/kg, day 4) of the same compound?
Answer: 0

Question: And the “Deaths on day after start of treatment” value (ICR mice; female, single iv 1mg/kg, day 5)?
Answer: 0

Question: And the “Deaths on day after start of treatment” value (ICR mice; female, single iv 1mg/kg, day 6)?
Answer: 0

Question: What about the “Deaths on day after start of treatment” value (ICR mice; female, single iv 1mg/kg, day 7) of the same compound?
Answer: 0

Question: What about the “Deaths on day after start of treatment” value (ICR mice; female, single iv 2.5mg/kg, day 0) of the same compound?
Answer: 0

Question: And the “Deaths on day after start of treatment” value (ICR mice; female, single iv 2.5mg/kg, day 1)?
Answer: 1

Question: What about the “Deaths on day after start of treatment” value (ICR mice; female, single iv 2.5mg/kg, day 2) of the same compound?
Answer: 3

Question: And the “Deaths on day after start of treatment” value (ICR mice; female, single iv 2.5mg/kg, day 3)?
Answer: 0

Question: And the “Deaths on day after start of treatment” value (ICR mice; female, single iv 2.5mg/kg, day 4)?
Answer: 0

Question: And the “Deaths on day after start of treatment” value (ICR mice; female, single iv 2.5mg/kg, day 5)?
Answer: 0

Question: And the “Deaths on day after start of treatment” value (ICR mice; female, single iv 2.5mg/kg, day 6)?
Answer: 1

Question: What about the “Deaths on day after start of treatment” value (ICR mice; female, single iv 2.5mg/kg, day 7) of the same compound?
Answer: 0

Question: And the “Deaths on day after start of treatment” value (ICR mice; female, single iv 5mg/kg, day 0)?
Answer: 4

Question: What about the “Deaths on day after start of treatment” value (ICR mice; female, single iv 5mg/kg, day 1) of the same compound?
Answer: 0

Question: And the “Deaths on day after start of treatment” value (ICR mice; female, single iv 5mg/kg, day 2)?
Answer: 1

Question: And the “Deaths on day after start of treatment” value (ICR mice; female, single iv 5mg/kg, day 3)?
Answer: 0

Question: And the “Deaths on day after start of treatment” value (ICR mice; female, single iv 5mg/kg, day 4)?
Answer: 0

Question: What about the “Deaths on day after start of treatment” value (ICR mice; female, single iv 5mg/kg, day 5) of the same compound?
Answer: 0

Question: And the “Deaths on day after start of treatment” value (ICR mice; female, single iv 5mg/kg, day 6)?
Answer: 0

Question: What about the “Deaths on day after start of treatment” value (ICR mice; female, single iv 5mg/kg, day 7) of the same compound?
Answer: 0

Question: And the “Deaths on day after start of treatment” value (ICR mice; male, single iv 1mg/kg, day 0)?
Answer: 0

Question: What about the “Deaths on day after start of treatment” value (ICR mice; male, single iv 1mg/kg, day 1) of the same compound?
Answer: 0

Question: And the “Deaths on day after start of treatment” value (ICR mice; male, single iv 1mg/kg, day 2)?
Answer: 0

Question: What about the “Deaths on day after start of treatment” value (ICR mice; male, single iv 1mg/kg, day 3) of the same compound?
Answer: 0

Question: And the “Deaths on day after start of treatment” value (ICR mice; male, single iv 1mg/kg, day 4)?
Answer: 0

Question: What about the “Deaths on day after start of treatment” value (ICR mice; male, single iv 1mg/kg, day 5) of the same compound?
Answer: 0

Question: What about the “Deaths on day after start of treatment” value (ICR mice; male, single iv 1mg/kg, day 6) of the same compound?
Answer: 0

Question: And the “Deaths on day after start of treatment” value (ICR mice; male, single iv 1mg/kg, day 7)?
Answer: 0

Question: What about the “Deaths on day after start of treatment” value (ICR mice; male, single iv 2.5mg/kg, day 0) of the same compound?
Answer: 0

Question: What about the “Deaths on day after start of treatment” value (ICR mice; male, single iv 2.5mg/kg, day 1) of the same compound?
Answer: 0

Question: And the “Deaths on day after start of treatment” value (ICR mice; male, single iv 2.5mg/kg, day 2)?
Answer: 2

Question: What about the “Deaths on day after start of treatment” value (ICR mice; male, single iv 2.5mg/kg, day 3) of the same compound?
Answer: 0

Question: What about the “Deaths on day after start of treatment” value (ICR mice; male, single iv 2.5mg/kg, day 4) of the same compound?
Answer: 0

Question: What about the “Deaths on day after start of treatment” value (ICR mice; male, single iv 2.5mg/kg, day 5) of the same compound?
Answer: 0

Question: And the “Deaths on day after start of treatment” value (ICR mice; male, single iv 2.5mg/kg, day 6)?
Answer: 0

Question: What about the “Deaths on day after start of treatment” value (ICR mice; male, single iv 2.5mg/kg, day 7) of the same compound?
Answer: 0

Question: And the “Deaths on day after start of treatment” value (ICR mice; male, single iv 5mg/kg, day 0)?
Answer: 5

Question: And the “Deaths on day after start of treatment” value (ICR mice; male, single iv 5mg/kg, day 1)?
Answer: 0

Question: What about the “Deaths on day after start of treatment” value (ICR mice; male, single iv 5mg/kg, day 2) of the same compound?
Answer: 0

Question: What about the “Deaths on day after start of treatment” value (ICR mice; male, single iv 5mg/kg, day 3) of the same compound?
Answer: 0

Question: What about the “Deaths on day after start of treatment” value (ICR mice; male, single iv 5mg/kg, day 4) of the same compound?
Answer: 0

Question: And the “Deaths on day after start of treatment” value (ICR mice; male, single iv 5mg/kg, day 5)?
Answer: 0

Question: And the “Deaths on day after start of treatment” value (ICR mice; male, single iv 5mg/kg, day 6)?
Answer: 0

Question: And the “Deaths on day after start of treatment” value (ICR mice; male, single iv 5mg/kg, day 7)?
Answer: 0

Question: And the LD50 at 7 days ([2]; female mice, read-out: median lethal dose (LD50))?
Answer: 1.6 mg/kg

Question: What about the LD50 at 7 days ([2]; male mice, read-out: median lethal dose (LD50)) of the same compound?
Answer: 2.95 mg/kg

Question: And the LD50 at 7 days ([2]; both sexes, mice, read-out: LD50, median lethal dose (dose causing 50% mortality))?
Answer: 2.3 mg/kg
